In patent US20090226527A1, “Particulate-stabilized injectable pharmacutical compositions of posaconazole” (priority 2004, published 2009):
≈ marks a conversion by molar mass, not a printed value. Read-outs that look alike come from different tables or passages of the source.

What was measured:
[1] = tested on: infectious agents (strains tested); experiment: microbe, parasite or virus in culture; assay type: cell-based
[2] = Orally administered Posaconazole: plasma Cmax/Cavg by quartile and response rate for aspergillosis; assay type: in vivo, patients; details: human, plasma, po, 800 mg/day
Excerpt: (§1) In order to determine the target dosing for intravenous administration, it was necessary to determine a target range for mean Cavg and mean Cmax. Previous studies on orally administered Posaconazole are instructive in this regard.
(§2) At the same time, posaconazole has a long half-life and a large volume of distribution that results in sustained plasma levels and extensive penetration into body tissues with a likely accumulation in tissues. […] Thus, it can be inferred that posaconazole's long half-life and large volume of distribution results in sustained plasma and tissue levels allowing for safer and better tolerated pharmacokinetic behavior.

aspergillosis = experiment: as above; assay type: in vivo, patients
Excerpt: as §1, §2

[3] = Rising Multiple Dose Study: plasma pharmacokinetics, safety, relative bioavailability of POS IV vs POS oral suspension; assay type: in vivo, human
Procedure: A rising, multiple dose assessment of the safety, tolerability, and pharmacokinetics of intravenous Posaconazole in healthy subjects was also conducted. The pharmacokinetic objectives of the study were two-fold: first, to determine the single-dose and multiple-dose pharmacokinetic (PK) profiles of POS IV in healthy subjects; and second, to determine the relative bioavailability of POS IV vs POS oral suspension administered under fed conditions. The formulation used in this study is that of Example 8.
Plasma obtained from blood samples was analyzed for POS using a validated LC-MS/MS method. Plasma pharmacokinetic parameters were determined. Safety was assessed by ECGs, clinical laboratory tests, vital signs, and adverse event monitoring.

[4] = Solubility of Posaconazole in water; assay type: physicochemical

Q: Which MIC ([1]; Microsporum audouinii, read-out: Geometric Mean MIC) does the source give for `CCC([C@@H](C)O)n1ncn(-c2ccc(N3CCN(c4ccc(OC[C@@H]5CO[C@@](Cn6cncn6)(c6ccc(F)cc6F)C5)cc4)CC3)cc2)c1=O` (stereo partly shown) [Posaconazole] here?
A: 0.25 µg/mL (≈ 0.357 µM)

Q: And the MIC ([1]; Microsporum audouinii, read-out: MIC[90])?
A: 0.25 µg/mL (≈ 0.357 µM)

Q: And the MIC ([1]; Microsporum canis, read-out: Geometric Mean MIC)?
A: 0.034 µg/mL (≈ 0.0485 µM)

Q: And the MIC ([1]; Microsporum canis, read-out: MIC[90])?
A: 0.5 µg/mL (≈ 0.713 µM)

Q: What about the MIC ([1]; Mucor spp, read-out: Geometric Mean MIC) of the same compound?
A: 0.694 µg/mL (≈ 0.99 µM)

Q: And the MIC ([1]; Mucor spp, read-out: MIC[90])?
A: 16 µg/mL (≈ 22.8 µM)

Q: And the MIC ([1]; Nakaseomyces glabratus, Candida glabrata, read-out: Geometric Mean MIC)?
A: 0.672 µg/mL (≈ 0.959 µM)

Q: And the MIC ([1]; Nakaseomyces glabratus, Candida glabrata, read-out: MIC[90])?
A: 2 µg/mL (≈ 2.85 µM)

Q: What about the MIC ([1]; Nannizzia fulva, Microsporum fulvum, read-out: Geometric Mean MIC) of the same compound?
A: 0.5 µg/mL (≈ 0.713 µM)

Q: What about the MIC ([1]; Nannizzia fulva, Microsporum fulvum, read-out: MIC[90]) of the same compound?
A: 0.5 µg/mL (≈ 0.713 µM)

Q: What about the MIC ([1]; Nannizzia gypsea, Microsporum gypseum, read-out: Geometric Mean MIC) of the same compound?
A: 0.042 µg/mL (≈ 0.0599 µM)

Q: What about the MIC ([1]; Nannizzia gypsea, Microsporum gypseum, read-out: MIC[90]) of the same compound?
A: 0.008 to 0.5 µg/mL (≈ 0.0114 to 0.713 µM)

Q: And the MIC ([1]; Nannizzia persicolor, Microsporum persicolor, read-out: Geometric Mean MIC)?
A: 0.25 µg/mL (≈ 0.357 µM)

Q: And the MIC ([1]; Nannizzia persicolor, Microsporum persicolor, read-out: MIC[90])?
A: 0.25 µg/mL (≈ 0.357 µM)

Q: What about the MIC ([1]; Paecilomyces spp, read-out: Geometric Mean MIC) of the same compound?
A: 0.239 µg/mL (≈ 0.341 µM)

Q: What about the MIC ([1]; Paecilomyces spp, read-out: MIC[90]) of the same compound?
A: 0.5 µg/mL (≈ 0.713 µM)

Q: And the MIC ([1]; Papiliotrema laurentii, Cryptococcus laurentii, read-out: Geometric Mean MIC)?
A: 0.095 µg/mL (≈ 0.136 µM)

Q: What about the MIC ([1]; Papiliotrema laurentii, Cryptococcus laurentii, read-out: MIC[90]) of the same compound?
A: 0.008 to 0.5 µg/mL (≈ 0.0114 to 0.713 µM)

Q: And the MIC ([1]; Paracoccidioides brasiliensis, read-out: Geometric Mean MIC, Paracoccidioides brasiliensis)?
A: 0.048 µg/mL (≈ 0.0685 µM)

Q: What about the MIC ([1]; Paracoccidioides brasiliensis, read-out: MIC[90], Paracoccidioides brasiliensis) of the same compound?
A: 0.125 µg/mL (≈ 0.178 µM)

Q: What about the MIC ([1]; Penicillium spp, read-out: Geometric Mean MIC) of the same compound?
A: 0.308 µg/mL (≈ 0.44 µM)

Q: What about the MIC ([1]; Penicillium spp, read-out: MIC[90]) of the same compound?
A: 1 µg/mL (≈ 1.43 µM)

Q: And the MIC ([1]; Pichia etchel, read-out: Geometric Mean MIC)?
A: 0.125 µg/mL (≈ 0.178 µM)

Q: What about the MIC ([1]; Pichia etchel, read-out: MIC[90]) of the same compound?
A: 0.125 µg/mL (≈ 0.178 µM)

Q: What about the MIC ([1]; Pichia kudriavzevii, Candida krusei, read-out: Geometric Mean MIC) of the same compound?
A: 0.335 µg/mL (≈ 0.478 µM)

Q: And the MIC ([1]; Pichia kudriavzevii, Candida krusei, read-out: MIC[90])?
A: 1 µg/mL (≈ 1.43 µM)

Q: What about the MIC ([1]; Pleurothecium obovoideum, Ramichloridium obovoideum, read-out: Geometric Mean MIC) of the same compound?
A: 0.044 µg/mL (≈ 0.0628 µM)

Q: What about the MIC ([1]; Pleurothecium obovoideum, Ramichloridium obovoideum, read-out: MIC[90]) of the same compound?
A: 0.031 to 0.063 µg/mL (≈ 0.0442 to 0.0899 µM)

Q: And the MIC ([1]; Rhizomucor spp, read-out: Geometric Mean MIC)?
A: 0.016 µg/mL (≈ 0.0228 µM)

Q: And the MIC ([1]; Rhizomucor spp, read-out: MIC[90])?
A: 0.016 µg/mL (≈ 0.0228 µM)

Q: What about the MIC ([1]; Rhizopus spp, read-out: Geometric Mean MIC) of the same compound?
A: 1 µg/mL (≈ 1.43 µM)

Q: And the MIC ([1]; Rhizopus spp, read-out: MIC[90])?
A: 4 µg/mL (≈ 5.71 µM)

Q: What about the MIC ([1]; Saccharomyces cerevisiae, read-out: Geometric Mean MIC) of the same compound?
A: 0.249 µg/mL (≈ 0.355 µM)

Q: What about the MIC ([1]; Saccharomyces cerevisiae, read-out: MIC[90]) of the same compound?
A: 1 µg/mL (≈ 1.43 µM)

Q: And the MIC ([1]; Scedosporium apiospermum, read-out: Geometric Mean MIC)?
A: 0.173 µg/mL (≈ 0.247 µM)

Q: What about the MIC ([1]; Scedosporium apiospermum, read-out: MIC[90]) of the same compound?
A: 1 µg/mL (≈ 1.43 µM)

Q: What about the MIC ([1]; Scedosporium boydii, Pseudallescheria boydii, read-out: Geometric Mean MIC) of the same compound?
A: 0.365 µg/mL (≈ 0.521 µM)

Q: What about the MIC ([1]; Scedosporium boydii, Pseudallescheria boydii, read-out: MIC[90]) of the same compound?
A: 1 µg/mL (≈ 1.43 µM)

Q: And the MIC ([1]; Sporothrix schenckii, read-out: Geometric Mean MIC)?
A: 0.771 µg/mL (≈ 1.1 µM)

Q: And the MIC ([1]; Sporothrix schenckii, read-out: MIC[90])?
A: 2 µg/mL (≈ 2.85 µM)

Q: What about the MIC ([1]; Trichophyton mentagrophytes, read-out: Geometric Mean MIC) of the same compound?
A: 0.036 µg/mL (≈ 0.0514 µM)

Q: And the MIC ([1]; Trichophyton mentagrophytes, read-out: MIC[90])?
A: 0.125 µg/mL (≈ 0.178 µM)

Q: What about the MIC ([1]; Trichophyton rubrum, Trichophyton raubitschekii, read-out: Geometric Mean MIC) of the same compound?
A: 0.25 µg/mL (≈ 0.357 µM)

Q: And the MIC ([1]; Trichophyton rubrum, Trichophyton raubitschekii, read-out: MIC[90])?
A: 0.25 µg/mL (≈ 0.357 µM)

Q: And the MIC ([1]; Trichophyton rubrum, read-out: Geometric Mean MIC)?
A: 0.047 µg/mL (≈ 0.0671 µM)

Q: And the MIC ([1]; Trichophyton rubrum, read-out: MIC[90])?
A: 0.25 µg/mL (≈ 0.357 µM)

Q: What about the MIC ([1]; Trichophyton soudanense, read-out: Geometric Mean MIC) of the same compound?
A: 0.5 µg/mL (≈ 0.713 µM)

Q: What about the MIC ([1]; Trichophyton soudanense, read-out: MIC[90]) of the same compound?
A: 0.5 µg/mL (≈ 0.713 µM)

Q: What about the MIC ([1]; Trichophyton spp, read-out: Geometric Mean MIC) of the same compound?
A: 0.036 µg/mL (≈ 0.0514 µM)

Q: What about the MIC ([1]; Trichophyton spp, read-out: MIC[90]) of the same compound?
A: 0.064 µg/mL (≈ 0.0913 µM)

Q: What about the MIC ([1]; Trichophyton tonsurans, read-out: Geometric Mean MIC) of the same compound?
A: 0.029 µg/mL (≈ 0.0414 µM)

Q: And the MIC ([1]; Trichophyton tonsurans, read-out: MIC[90])?
A: 0.125 µg/mL (≈ 0.178 µM)

Q: And the MIC ([1]; Trichosporon spp, read-out: Geometric Mean MIC)?
A: 0.63 µg/mL (≈ 0.899 µM)

Q: And the MIC ([1]; Trichosporon spp, read-out: MIC[90])?
A: 0.5 to 1 µg/mL (≈ 0.713 to 1.43 µM)

Q: What about the MIC ([1]; Yarrowia lipolytica, read-out: Geometric Mean MIC) of the same compound?
A: 0.144 µg/mL (≈ 0.205 µM)

Q: And the MIC ([1]; Yarrowia lipolytica, read-out: MIC[90])?
A: 0.016 to 1 µg/mL (≈ 0.0228 to 1.43 µM)

Q: And the Cmax ([2]; Quartile 1, n = 17)?
A: 142 ng/mL

Q: What about the Cmax ([2]; Quartile 2, n = 17) of the same compound?
A: 467 ng/mL

Q: What about the Cmax ([2]; Quartile 3, n = 17) of the same compound?
A: 852 ng/mL

Q: And the Cmax ([2]; Quartile 4, n = 16)?
A: 1480 ng/mL

Q: And the “Response (response rate for aspergillosis)” value (“Response” for short) (aspergillosis; Quartile 1)?
A: 24%

Q: And the “Plasma Cavg, mean” value (aspergillosis; Quartile 1, n = 17)?
A: 134 ng/mL

Q: What about the “Response” value (aspergillosis; Quartile 2) of the same compound?
A: 53%

Q: What about the “Plasma Cavg, mean” value (aspergillosis; Quartile 2, n = 17) of the same compound?
A: 411 ng/mL

Q: And the “Response” value (aspergillosis; Quartile 3)?
A: 53%

Q: What about the “Plasma Cavg, mean” value (aspergillosis; Quartile 3, n = 17) of the same compound?
A: 719 ng/mL

Q: And the “Response” value (aspergillosis; Quartile 4)?
A: 71%

Q: And the “Plasma Cavg, mean” value (aspergillosis; Quartile 4, n = 16)?
A: 1250 ng/mL

Q: And the “Dose proportionality of exposure (Cmax and AUC)” value ([3]; 100- to 400-mg range)?
A: approximately dose proportional

Q: What about the Safety and tolerability ([3]; healthy subjects, 100-400 mg) of the same compound?
A: safe and well tolerated

Q: And the “Daily dosing needed to achieve steady-state” value ([3]; human, in vivo)?
A: 6 to 7 days

Q: And the clearance ([3]; human, in vivo, Mean systemic clearance at steady-state)?
A: 90 to 93.3 mL/min

Q: What about the clearance ([3]; human, in vivo, Mean systemic clearance, single-dose administration on Day 1) of the same compound?
A: 137 to 192 mL/min

Q: What about the half-life ([3]; human, in vivo, Single-dose half-life) of the same compound?
A: 26 to 29 h

Q: What about the half-life ([3]; human, in vivo, plasma, read-out: Mean steady-state terminal half-life) of the same compound?
A: 33 to 37 h

Q: What about the Solubility in water [4] of the same compound?
A: minimally soluble in water
